Patent US20100221304A1, “Bionanocomposite Materials and Methods For Producing and Using the Same” (The Regents of the University of Colorado, a body corporate, priority 2009, published 2010)

How the values were obtained:
smooth muscle cell (SMC) = assay: SMC contraction and invasion in genipin-crosslinked collagen-chitosan-elastin (CCE) gel constructs; format: cell-based
Description: The vascular media, a layer of the blood vessel wall containing smooth muscle cell (SMC), is often the target functional tissue in the construction of biomimetic vascular grafts. It has a major contribution to mechanical properties and biological functions of vessels including contraction and healing. The present inventors have studied the effects of crosslinking and biomolecule conditions in the development of mechanically strong and stable, biologically functional constructs for vascular media equivalents. To this end, genipin was used to crosslink collagen-chitosan-elastin (CCE) constructs, and the effects of genipin concentration on the mechanical properties and SMC activity of CCE gel constructs were examined.
To enhance biological activities of cells on the genipin-treated CCE constructs, soluble molecule factors were incorporated with structural constructs and their effects on SMC activities were evaluated. These conditions include heparin, platelet-derived […] growth factor (PDGF), high-concentrated fetal bovine serum (h-FBS), mixture of heparin and PDGF and mixture of h-FBS and PDGF. […] The ingrowth of SMC in the vascular media equivalent also promoted wound healing process of the construct scaffold by showing the closure of the puncture hole (FIG. 14).

SMC = SMC migration, in-growth and contraction in collagen-chitosan scaffolds; format: cell-based
Description: In addition, collagen-chitosan scaffolds have been developed as a structural support for the formation of a vascular media equivalent. In particular, the effects of cross-linking and PDGF-BB (with or without heparin or serum) on biomechanical properties, SMC migration, SMC contraction, and wound healing have been evaluated (FIG. 12). […] For example, it enhanced the strength and modulus while inhibited SMC in-growth and contraction. With a low cross-linking condition, the molecule effects of PDGF-BB, a SMC attractant, were studied with or without serum or heparin.

Molecule	SMC contraction or invasion in the gels (smooth muscle cell (SMC); genipin at a concentration of 5 mM or above)	SMC contraction and invasion in the CCE gels (smooth muscle cell (SMC); genipin crosslinking)	SMC in-growth and contraction (SMC; collagen-chitosan scaffolds cross-linked using genipin)	PDGF-induced SMC invasion into the crosslinked constructs (smooth muscle cell (SMC))	PDGF-induced cell migration and contraction (SMC; low cross-linking condition, PDGF-BB with or without serum or heparin)
COC(=O)C1=CO[C@@H](O)[C@@H]2C(CO)=CC[C@H]12 [genipin]	No SMC contraction or invasion was observed	significantly inhibited	inhibited	–	–
heparin	–	–	–	inhibitory effects	inhibited
